According to US20140171371A1, “Compositions And Methods For The Diagnosis of Schizophrenia” (The Trustees of Columbia University in the City of New York, priority 2011, published 2014):

System: lymphoblastoid cell lines
Test: Cyclic AMP accumulation in lymphoblastoid cell lines in response to another GPCR agonist (specificity control)
Type: cell-based, human
Settings: PGE2 1 μM + forskolin 10 μM, IBMX 200 μM pre-incubation, 10 min, fold-change over forskolin/IBMX alone
Description: Reactions were terminated by pelleting the cells, aspiration of the medium and addition of 100 μl of cold 7.5% (wt/vol) trichloroacetic acid (TCA). Cyclic AMP content in TCA extracts was determined by radioimmunoassay and normalized to the number of cells per well. […] Results presented for each subject represents the mean and standard error of at least ten replicates. Standard error and P-values for pooled results were computed across individuals (FIG. 3).

## CCCCC[C@H](O)/C=C/[C@H]1[C@H](O)CC(=O)[C@@H]1C/C=C\CCCC(=O)O [prostaglandin E2]
  cAMP accumulation in response to agonist, 7q36.3 duplication carriers compared to controls: no group difference
Listed as PGE2
  cAMP accumulation in response to agonist, 7q36.3 duplication carriers compared to controls: No difference
Listed as Prostaglandin E2
  cAMP accumulation in response to agonist, 7q36.3 duplication carriers compared to controls: No significant differences
